Test system: maize
Assay: Pre-emergence test (Example B2), greenhouse pots, phytotoxicity on maize
Assay type: in vivo
Description: The test plants are sown in pots under greenhouse conditions. A standard soil is used as cultivation substrate. At a pre-emergence stage, the herbicides, both on their own and in admixture with safener, are applied to the soil surface or to cultivated plants seed-dressed with safener. The rates of application depend on the optimum doses ascertained under field conditions or greenhouse conditions. The tests are evaluated after from 2 to 4 weeks (100% action=complete destruction, 0% action=no phytotoxic action). The mixtures used in this test show good results.

CCc1cccc(C)c1N(C(=O)CCl)[C@@H](C)COC [S-metolachlor]
Phytotoxicity on maize (%) 15 days after application (Table B2.1, S-metolachlor 1000 g/ha (EC 960), safener of formula II row prints 1000 g/ha): 7%
Phytotoxicity on maize (%) 15 days after application (Table B2.1, S-metolachlor 2000 g/ha (EC 960), safener of formula II row prints 2000 g/ha): 20%
Phytotoxicity on maize (%) 15 days after application (Table B2.1, S-metolachlor 4000 g/ha (EC 960), safener of formula II row prints 4000 g/ha): 40%
Phytotoxicity on maize (%) 15 days after application (Table B2.1, S-metolachlor 6000 g/ha (EC 960), safener of formula II row prints 6000 g/ha, 100%=complete destruction): 53%

Reference: US20040167033A1, “Herbicidal composition” (priority 2001, published 2004)
